Test results taken from US10800772B2 (Gilead Sciences, Inc., priority 2016, dated 2020).

Columns and labels:
[1] = Hum MS stability (human microsomal stability half-life); settings: human microsomes
HIV-IIIb IN T174I DE = test: Antiviral assay in MT4 cells, HIV-IIIb IN T174I DE virus (from dose escalation passaging); type: cell-based, HIV-1; settings: Human immunodeficiency virus 1, IIIB, MT4, 120 h, read-out: T174I DE EC50, MT4 cells, HIV-IIIb IN T174I DE (dose escalation), 5 days, CellTiter-Glo
In short: (§1)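 MT4 cells were pre-infected for 3 h at 37 °C with HIV-IIIb (0.004 m.o.i.), then plated at 2000 cells per well with 3-fold serially diluted compound (10 concentrations, quadruplicate). After 5 days at 37 °C, CellTiter-Glo luminescence was read, and EC50 was taken as the concentration giving a 50% decrease in signal.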

HIV-IIIb IN T174I BT = test: Antiviral assay in MT4 cells, HIV-IIIb IN T174I BT virus (from viral breakthrough); type: cell-based, HIV-1; settings: Human immunodeficiency virus 1, IIIB, MT4, 120 h, read-out: T174I BT EC50, MT4 cells, HIV-IIIb IN T174I BT (viral breakthrough), 5 days, CellTiter-Glo
In short: as §1

HIV-IIIb (wildtype) = test: Antiviral assay in MT4 cells, HIV-IIIb wildtype; type: cell-based, HIV-1; settings: Human immunodeficiency virus 1, IIIB, MT4, 120 h, read-out: WT EC50
In short: as §1

| Structure (SMILES) | half-life [1] [h] | EC50 (HIV-IIIb IN T174I DE) [nM] | EC50 (HIV-IIIb IN T174I BT) [nM] | EC50 (HIV-IIIb (wildtype)) [nM] |
| --- | --- | --- | --- | --- |
| CCN1CCN(c2nn(C)c3ccc(-c4nc5cc(C)c([C@H](OC(C)(C)C)C(=O)O)c(-c6ccc(Cl)cc6)c5s4)cc23)CC1 [Compound 133, (S)-2-(tert-butoxy)-2-(7-(4-chloro-phenyl)-2-(3-(4-ethylpiperazin-1-yl)-1-methyl-1H-indazol-5-yl)-5-methylbenzo[d]thiazol-6-yl) acetic acid] | 5.82 | 439 | 434 | 3 |
| COCCOC1CN(c2nn(C)c3ccc(-c4nc5cc(C)c([C@H](OC(C)(C)C)C(=O)O)c(-c6ccc(Cl)cc6)c5s4)cc23)C1 [Compound 134, (S)-2-(tert-butoxy)-2-(7-(4-chloro-phenyl)-2-(3-(3-(2-methoxyethoxy)azetidin-1-yl)-1-methyl-1H-indazol-5-yl)-5-methylbenzo[d]thiazol-6-yl) acetic acid] | 1.48 | 2240 | 1160 | 13 |
| COCCN(C)C1CN(c2nn(C)c3ccc(-c4nc5cc(C)c([C@H](OC(C)(C)C)C(=O)O)c(-c6ccc(Cl)cc6)c5s4)cc23)C1 [Compound 145, (S)-2-(tert-butoxy)-2-(7-(4-chloro-phenyl)-2-(3-(3-((2-methoxyethyl) (methyl)amino)azetidin-1-yl)-1-methyl-1H-indazol-5-yl)-5-methylbenzo[d]thiazol-6-yl) acetic acid] | 2.15 | 2170 | 1590 | 12 |
| Cc1cc2nc(-c3ccc4c(c3)c(C3CCN(C5CC(O)C5)CC3)nn4C)sc2c(-c2ccc(Cl)cc2)c1[C@H](OC(C)(C)C)C(=O)O (stereo partly drawn) [Compound 156, (S)-2-(tert-butoxy)-2-(7-(4-chloro-phenyl)-2-(3-(1-((1s,3s)-3-hydroxy-cyclobutyl)piperidin-4-yl)-1-methyl-1H-indazol-5-yl)-5-methylbenzo[d]thiazol-6-yl) acetic acid] | 4.95 | 197 | 126 | 11 |
| Cc1cc2nc(-c3ccc4c(c3)c(C3CCN([C@H]5CCN(C)C5)CC3)nn4C)sc2c(-c2ccc(Cl)cc2)c1[C@H](OC(C)(C)C)C(=O)O [Compound 163, (S)-2-(tert-butoxy)-2-(7-(4-chloro-phenyl)-5-methyl-2-(1-methyl-3-(1-((S)-1-methyl-pyrrolidin-3-yl)piperidin-4-yl)-1H-indazol-5-yl)benzo[d]thiazol-6-yl)acetic acid] | 2.12 | 324 | 204 | 20 |
| CC(=O)N1CC[C@H](N2CCC(c3nn(C)c4ccc(-c5nc6cc(C)c([C@H](OC(C)(C)C)C(=O)O)c(-c7ccc(Cl)cc7)c6s5)nc34)CC2)C1 [Compound 170, (S)-2-(2-(3-(1-((S)-1-acetyl-pyrrolidin-3-yl)piperidin-4-yl)-1-methyl-1H-pyrazolo[4,3-b]pyridin-5-yl)-7-(4-chlorophenyl)-5-methylbenzo [d]thiazol-6-yl)-2-(tert-butoxy) acetic acid] | 0.533 | 112 | 57 | 2 |
| Cc1cc2nc(-c3ccc4c(n3)c(C3CCN([C@H]5CCN(C)C5)CC3)nn4C)sc2c(-c2ccc(Cl)cc2)c1[C@H](OC(C)(C)C)C(=O)O [Compound 172, (S)-2-(tert-butoxy)-2-(7-(4-chloro-phenyl)-5-methyl-2-(1-methyl-3-(1-((S)-1-methyl-pyrrolidin-3-yl)piperidin-4-yl)-1H-pyrazolo[4,3-b]pyridin-5-yl)benzo[d]thiazol-6-yl)acetic acid] | 0.933 | 118 | 54 | 5 |
| Cc1cc2nc(-c3ccc4c(n3)c(C3CCN(CCN(C)C)CC3)nn4C)sc2c(-c2ccc(Cl)cc2)c1[C@H](OC(C)(C)C)C(=O)O [Compound 173, (S)-2-(tert-butoxy)-2-(7-(4-chloro-phenyl)-2-(3-(1-(2-(dimethylamino)ethyl)piperidin-4-yl)-1-methyl-1H-pyrazolo[4,3-b]pyridin-5-yl)-5-methylbenzo[d]thiazol-6-yl) acetic acid] | 1.2 | 89 | 45 | 2 |
